What was measured:
[1] = test system: immortalized control (MCH46) and SCO2 patient fibroblasts, primary human skin fibroblasts (MW28); assay: Cell viability of human fibroblasts (total cellular ATP, Cell-Titre GLo); assay type: cell-based
Method: FIGS. 5A and 5B illustrate cell viability of immortalized and primary human fibroblasts cell lines treated with increasing concentrations of elesclomol. […] Cell viability was measured by quantifying total cellular ATP levels by Cell-Titre GLo assay (Promega). Data are expressed as mean±SD (n=3).
ES Supplementation Rescues Levels of CcO Subunits in Mammalian Cell Lines with Genetic Defects in Copper Metabolism. To expand upon the findings in yeast and to test the efficacy of ES in mammalian cell culture models of copper deficiency, a Ctr1 knockout rat H9c2 cardiomyocyte cell line was constructed. […] As expected, the loss of Ctr1 led to a ˜4-fold decrease in the levels of intracellular copper (FIG. 4A) and a concomitant reduction in the levels of the CcO subunitCOX1 and superoxide dismutase, SOD1 (FIG. 4B). This validated Ctr1^−/− cell line was used to test the efficacy of ES in rescuing COX1, a copper-containing subunit of CcO and SOD1, superoxide dismutase, another copper-containing enzyme SOD1. […] Finally, the efficacy of ES in rescuing CcO defects in SCO2 patient fibroblasts that were previously shown to have a COX2 deficiency was tested.

BY4741 WT cells = assay: Respiratory growth of wild type yeast with copper chelator BCS; assay type: cell-based, Saccharomyces cerevisiae; conditions: 10 nM ES co-treatment with 20 μM BCS
Method: The cell density was measured spectrophotoretrically at the indicated time points at 600 nm. The data are representative of two independent experiments.
Yeast Strains and Culture Conditions. The authenticity of yeast strains was confirmed by PCR as well as by replica plating on dropout plates. Yeast cells were cultured in standard YP growth media including YPD (1% yeast extract, 2% peptone and 2% glucose), YPGal (2% galactose), YPGE (3% glycerol+1% ethanol), or synthetic media (SC glucose). For qualitative growth measurement, 10-fold serial dilutions of overnight cultures were spotted on YPD or YPGE plates and incubated at 30° C. and 37° C. for the indicated period. Growth in liquid media was measured spectrophotometrically at 600 nm.

coa6Δ cells = assay: Oxygen consumption rate measurement; assay type: cell-based, Saccharomyces cerevisiae; conditions: 20 nM ES, YP galactose medium
Method: Oxygen Consumption Measurement. For measurements of respiration rates, cells were grown to late log phase in YPGal medium and then washed, counted, and resuspended in fresh YPGal medium at 10^8 cells/ml. The rate of oxygen consumption was then measured at 30° C. using the Oxytherm (Hansatech, Norfolk, UK). Cyanide-sensitive respiration was calculated after the addition of 1 mM KCN, and the cyanide-insensitive respiration was subtracted from the total respiration.

[2] = test system: Ctrl^−/− mouse embryonic fibroblasts (MEFs); assay: COX1 levels in Ctr1 knockout mouse embryonic fibroblasts; assay type: cell-based; conditions: increasing ES doses
Method: (§1) Mammalian Cell Culture. The human control MCH46 and SCO2 patient fibroblasts as well as the rat H9c2 control and Ctr1^−/− cardiomyocytes were cultured in high glucose Dulbecco's modified Eagle's medium (DMEM) supplemented with 10% fetal bovine serum (Sigma) and 1 mM sodium pyruvate (Life Technologies). The mouse embryonic fibroblasts were cultured in DMEM 10% FBS, 1 mM sodium pyruvate, 1× minimum essential medium non-essential amino acids (MEM NEAA; Life Technologies 11140), 50 μg/mL uridine, and 1× Pen Strep Glutamine (Life Technologies 10378). All cell lines were cultured under 5% CO2 at 37° C. and were treated with indicated concentrations of ES for 3-6 days before harvesting. Whole cell protein was extracted in lysis buffer (BP-115, Boston BioProducts) supplemented with protease inhibitor cocktail (Roche Diagnostics) and the protein concentrations were determined by BCA assay (Thermo Scientific).
Immunoblotting and In-gel Activities. Sodium dodecyl sulfate polyacrylamide gel electrophoresis (SDS-PAGE) and Blue Native PAGE (BN-PAGE) were performed to separate denatured and native protein complexes, respectively. For SDS-PAGE, mitochondrial lysate ([…]) was separated on NuPAGE 4-12% Bis-Tris gels (Life Technologies, Carlsbad, CA). For BN-PAGE, yeast mitochondria were solubilized in buffer containing 1% digitonin (Life Technologies) by incubating for 15 min at 4° C. […]

[3] = multiple human clinical trials; cited from earlier work
[4] = test system: Ctr1^−/− H9c2 cardiomyocytes; assay: COX1 and SOD1 levels in Ctr1 knockout H9c2 cardiomyocytes (Western blot); assay type: cell-based, rat; conditions: 5 nM ES
Method: FIGS. 4A and 4B illustrates the effects of ES supplementation in increasing copper levels (A) and cytochrome c oxidase subunit, COX1, and superoxide dismutase, SOD1 levels (B) in Ctrl1^−/− H9c2 rat cardiomyocytes. ATP5A is a subunit of mitochondrial ATP synthase and was used as a loading control for the Western blotting experiment.
as §1
Construction of a Ctr1 Knockout Rat H9c2 Cell Line. […]

## CN(NC(=O)CC(=O)NN(C)C(=S)c1ccccc1)C(=S)c1ccccc1 [ES, elesclomol]
[1]
  toxicity in immortalized cell lines compared to primary cultures: much more pronounced toxicity in immortalized cell lines
[1]; immortalized fibroblasts, 36 hours
  concentration at which ES toxicity occurs relative to the dose that rescued COX2 levels: 20 ×
BY4741 WT cells
  rescue of BCS-reduced respiratory growth: rescued
coa6Δ cells
  oxygen consumption rate: restored the oxygen consumption rate of coa6Δ cells to that of wild type cells
[2]
  COX1 levels: dose dependent rescue
[3]
  toxicity profile: favorable toxicity profile
[4]
  levels of COX1 and SOD1: restores
